Laboratory results published in US20080249144A1, “Preventive or Therapeutic Agent for Chronic Inflammatory Lung Disease” (KAKEN PHARMACEUITICAL CO., LTD., priority 2004, published 2008).

Experiments:
human neutrophils = assay: LTB4-induced human neutrophil migration (48-well modified Boyden chamber); type: cell-based
Description: Leukocytes were collected from human peripheral blood samples (20 mL of venous blood was taken by a doctor) were obtained from 4 healthy adults (male). They received sufficient information on the purpose of the experiment and gave informed consent in advance. An equivalent amount of 3% dextran (M.W. 208000) saline solution was added to the heparinized blood thus obtained and the mixture was kept to stand for one hour. Thereafter, the supernatant was collected and centrifuged at 150 g for 5 minutes at 4° C. The supernatant was discarded and the pellet was repeatedly twice haemolysed. To explain in detail, 4 mL of an ice-cooled 0.2% NaCl solution was added, quickly suspended and allowed to stand for 20 to 30 seconds. Thereafter, 4 mL of an ice-cooled 1.6% NaCl solution was added to the suspension solution to return the solution to the isotonic condition. After centrifugation was performed at 150 g for 5 minutes at 4° C., the same treatment was repeated. The cell pellet obtained was finally suspended in a buffer (Hank's solution containing 0.1% FBS) and subjected to an experiment.
This experiment was performed using a 48-well modified Boyden chamber (Neuro Probe). To explain in detail, the wells of the bottom plate of the chamber were filled with 25 μl of vehicle solution containing 10 nmol/L of LTB4. A polycarbonate filter (PVP-free, pore size: 3 μm) was placed on the bottom plate. The top plate of the chamber was mounted and each well of the upper plate was filled with 45 μL of a leukocyte suspension solution (1.0×10^6 cells/mL) prepared with the buffer. Immediately after that, 5 μL of a test substance (10 fold concentration of a final concentration) was added to the wells. […] The numbers of cells were counted in 4 visual fields (×400) per well and the average of them was regarded as the number of migrated cells. Each test substance was evaluated using 3 wells. The average value of these wells was calculated and regarded as the value of each substance.
The average and standard deviation of each group were calculated. […]

[1] = system: PPE-induced pulmonary emphysema model; assay: PPE-induced pulmonary emphysema model in mice; type: in vivo
Description: Eight-week old C57BL strain mice were anaesthetized with isoflurane. PPE (25 μg) was administered once to the lung through a cannula inserted into the trachea through the pharyngolarynx to induce a pulmonary damage. To a non-PPE administration group (normal group), saline was administered instead. In a preventive administration experiment (hereinafter referred to as a “preventive experiment”) of KP-496, drug effect was evaluated on inflammatory cells in BALF 2 days after PPE administration and by histopathological examination of the lung after 10 days. In a therapeutic administration experiment of KP-496 (hereinafter referred to as a “therapeutic experiment”), the drug effect was evaluated by histo-pathological examination of the lung and weight of the organs 14 days after PPE administration.
The medicament administration period was set from the PPE administration date to the day before autopsy in the preventive experiment and set from a predetermined day (KP-496A group: PPE administration date, KP-496B group: 3 days after PPE administration date, KP-496C group: 7 days after PPE administration date) to the day before autopsy in the therapeutic experiment. Inhalation administration of KP-496 was performed in the same manner as in Example 2. Furthermore, the normal group and the control group were allowed to spontaneously inhale saline, instead. A medicament for use in comparison, prednisolone, was orally administered in a dose of 5 mg/kg twice a day. A group consisted of 10 animals.
The animals were anaesthetized with pentobarbital and killed by exsanguination. Immediately after that, BAL of the right and left lungs was performed with 2 ml of saline. In the same manner as in Example 2, the total number of cells and the number of cells according to the cell type in the BALE were determined.
The lung was excised out from the animal killed by exsanguination in the same manner as in the above, the weight of the lung was measured. The lung was fixed in 10 vol % neutral buffered formalin solution. A pathological tissue sample was prepared in accordance in a general way. The degree of the damage of the lung tissue observed was evaluated by scoring in the same manner as in Example 2. Furthermore, the average of alveolar-space area of the entire lung tissue sample was computationally measured with image-processing software.
The average value and standard deviation of each group were calculated. Comparison between the normal group and the control group was performed by the Levene's test for equal variance and then, the t-test was performed depending on the results. To compare the control group and test substance administration groups, equal variance was first confirmed by the Levene's test and then multiple comparisons were performed in accordance with the Dunnett's test. Note that evaluation parameters with unequal variance and the damage score of the lung tissue were analyzed by nonparametric Mann-Whitney test. The significance level employed was […].

[2] = 2 days after PPE, compared to control group
[3] = preventive experiment, 10 days after PPE

CC(C)c1csc(COc2cccc(CN(CCCCNS(=O)(=O)c3ccc(Cl)cc3)S(=O)(=O)c3ccccc3C(=O)O)c2)n1 [KP-496, 2-{N-[4-(4-chlorobenzenesulfonylamino)butyl]-N-{3-[(4-isopropyl-2-thiazolyl)methoxy]benzyl}}sulfamoylbenzoic acid]
suppression of LTB4-induced cell migration, concentration dependence (human neutrophils; 10 nmol/L LTB4, human leukocytes, 1.5 hours): suppressed the cell migration in a concentration dependent manner | suppression of LTB4-induced neutrophil migration (human neutrophils; test substance 1 μmol/L, 10 nmol/L LTB4): significantly suppressed | total number of cells in BALF ([1]; 2 days after PPE administration, preventive experiment): 3.1±0.8 ×10^5 cells | number of eosinophils in BALF [1, 2]: lower values than in the control group | number of macrophages in BALF [1, 2]: significantly decreased | number of neutrophils in BALF [1, 2]: significantly decreased | weights of the organs (liver, spleen and thymus gland) ([1]; mouse, in vivo): No effect was observed | emphysema-like pathology of the lung (histopathology) [1, 3]: the pathologic lesion was localized and mild | increase in lung weight [1, 3]: significantly suppressed | damage score of the lung ([1]; preventive experiment, 10 days after PPE, compared with control group): significantly decreased | increase of the average of the alveolar-space area ([1]; preventive experiment, compared to control): significantly suppressed | lung weight ([1]; therapeutic experiment, 14 days after PPE, despite difference of the administration initiation date): lower values than the control group | damage score of the lung ([1]; therapeutic experiment, 14 days after PPE, each of the groups (start day 0, 3 or 7)): significantly decreased | lung weight, difference to control group ([1]; therapeutic experiment, administration started from PPE administration date): a significant difference was observed | increase of the average of the alveolar-space area ([1]; therapeutic experiment, each of the groups (start day 0, 3 or 7)): significantly suppressed
